Experimental data: US11999746B2, “Compounds” (GlaxoSmithKline Intellectual Property Development Limited, priority 2014, dated 2024)

What was measured:
[1] = target: T1, Lp-PLA2 in human plasma (Homo sapiens, UniProt Q13093); experiment: (3a) Lp-PLA2 human plasma Thio-PAF assay; format: biochemical; settings: (3a) Thio-PAF assay, pooled human plasma; Examples 1-265 and 413-430 were tested here; read-out: pIC50 in the Lp-PLA2 human plasma assay (converted)
T1 construct: from tissue; host or cells: pooled human plasma
T1 sequence (Q13093 22-441): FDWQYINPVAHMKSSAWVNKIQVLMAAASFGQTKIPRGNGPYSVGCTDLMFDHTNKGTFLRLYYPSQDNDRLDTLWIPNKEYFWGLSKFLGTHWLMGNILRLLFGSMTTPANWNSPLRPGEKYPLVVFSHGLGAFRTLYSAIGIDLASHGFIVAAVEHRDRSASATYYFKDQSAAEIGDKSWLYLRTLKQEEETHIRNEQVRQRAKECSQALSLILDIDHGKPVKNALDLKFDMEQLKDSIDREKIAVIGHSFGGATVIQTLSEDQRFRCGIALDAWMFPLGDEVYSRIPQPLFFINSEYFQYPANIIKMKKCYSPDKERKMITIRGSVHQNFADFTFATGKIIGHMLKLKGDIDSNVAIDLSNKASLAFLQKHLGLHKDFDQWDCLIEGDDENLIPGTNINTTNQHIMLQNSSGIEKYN
In short: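 Endogenous Lp-PLA2 activity in frozen pooled human plasma measured as thiol release from 2-thio-PAF, detected by CPM fluorescence (ex 380/em 485). Compound preincubation 30 min; 2-min reaction in HEPES pH 7.4 buffer with NEM, stopped with 5% TFA, read 40 min later at room temperature; values as pIC50.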

[2] = target: T2, recombinant human Lp-PLA2 (Homo sapiens, UniProt Q13093); experiment: (1a) PED6 assay, recombinant human Lp-PLA2 (rhLp-PLA2); format: biochemical; settings: Examples 1-167 and 413-430 were tested here, one experiment or average of multiple experiments, read-out: rhLp-PLA2 (pIC50) (converted)
T2 sequence (Q13093 22-441): T1 sequence (Q13093 22-441)
In short: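 PED6 (2 μM final after 1:1 addition of 4 μM stock) cleavage by rhLp-PLA2 (4 nM working solution) in 50 mM HEPES pH 7.4, 150 mM NaCl, 1 mM CHAPS; compounds preincubated with enzyme 30 minutes, reaction 20 min at room temperature. Fluorescence at ex 480/em 540; pIC50 from curve fit.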

IC50 [1] [nM] | IC50 [2] [nM] | Compound
≤ 10000 | ≤ 100 | O=c1nc(OCc2cc(F)c(CCCF)c(F)c2)cc2n1CC1CCCN21 (stereo not drawn) [Example E99, 3-((3,5-Difluoro-4-(3-fluoropropyl)benzyl)oxy)-7,8,8a,9-tetrahydropyrrolo[1′,2′:3,4] imidazo[1,2-c]pyrimidin-1(6H)-one]
≤ 10000 | ≤ 100 | O=c1nc(OCc2ccc(F)cc2F)cc2n1C[C@H]1CCCN21 [Example E100, (R)-3-((2,4-difluorobenzyl)oxy)-7,8,8a,9-tetrahydropyrrolo[1,2′:3,4]imidazo[1,2-c] pyrimidin-1(6H)-one]
≤ 10000 | ≤ 100 | O=c1nc(OCc2cccc(F)c2F)cc2n1C[C@H]1CCCN21 [Example E101, (R)-3-((2,3-difluorobenzyl)oxy)-7,8,8a, 9-tetrahydropyrrolo[1′, 2′:3, 4]imidazo[1,2-c] pyrimidin-1(6H)-one]
≤ 10000 | ≤ 100 | O=c1nc(OCc2cccc(F)c2)cc2n1C[C@H]1CCCN21 [Example E102, (R)-3-((3-fluorobenzyl)oxy)-7,8,8a,9-tetrahydropyrrolo[1′,2′:3,4]imidazo[1,2-c]pyrimidin-1(6H)-one]
≤ 10000 | ≤ 100 | O=c1nc(OCc2cc(F)cc(F)c2)cc2n1C[C@H]1CCCN21 [Example E103, (R)-3-((3,5-difluorobenzyl)oxy)-7,8,8a,9-tetrahydropyrrolo[1,2′:3,4]imidazo[1,2-c] pyrimidin-1(6H)-one]
≤ 10000 | ≤ 100 | O=c1nc(NCc2cccc(F)c2)cc2n1C[C@H]1CCCN21 [Example E104, (R)-3-((3-fluorobenzyl)amino)-7,8,8a,9-tetrahydropyrrolo[1′,2′:3,4]imidazo[1,2-c]pyrimidin-1(6H)-one]
≤ 10000 | ≤ 100 | O=c1nc(OCc2cc(F)c(OC3(CCF)CC3)c(F)c2)cc2n1C[C@H]1CCCN21 [Example E105, (R)-3-((3,5-difluoro-4-(1-(2-fluoroethyl)cyclopropoxy)benzyl)oxy)-7,8,8a,9-tetrahydro pyrrolo[1′,2′:3,4]imidazo[1,2-c]pyrimidin-1(6H)-one]
≤ 10000 | ≤ 100 | Cc1cc(Oc2c(F)cc(COc3cc4n(c(=O)n3)C[C@H]3CCCN43)cc2F)ccn1 [Example E106, (R)-3-((3,5-difluoro-4-((2-methylpyridin-4-yl)oxy)benzyl)oxy)-7,8,8a,9-tetrahydro pyrrolo[1′,2′:3,4]imidazo[1,2-c]pyrimidin-1(6H)-one]
≤ 100 | 0.0398 | O=c1nc(OCc2cc(F)c(Oc3ccnc(C(F)(F)F)c3)c(F)c2)cc2n1CC1COCCN21 (stereo not drawn) [Example E107, 7-((3,5-Difluoro-4-((2-(trifluoromethyl)pyridin-4-yl)oxy)benzyl)oxy)-3,4, 11, 11a-tetra hydropyrimido[6′,1′:2,3]imidazo[5,1-c][1,4]oxazin-9(1H)-one]
≤ 100 | ≤ 100 | Cn1cc(Oc2c(F)cc(COc3cc4n(c(=O)n3)CC3COCCN43)cc2F)cn1 (stereo not drawn) [Example E108, 7-((3,5-Difluoro-4-((1-methyl-1H-pyrazol-4-yl)oxy)benzyl)oxy)-3,4,11,11a-tetrahydro pyrimido[6′,1′:2,3]imidazo[5,1-c][1,4]oxazin-9(1H)-one]
≤ 100 | 1.26 | CCn1cc(Oc2c(F)cc(COc3cc4n(c(=O)n3)CC3COCCN43)cc2F)cn1 (stereo not drawn) [Example E109, 7-((4-((1-Ethyl-1H-pyrazol-4-yl)oxy)-3,5-difluorobenzyl)oxy)-3,4,11,11a-tetrahydropyrimido[6′,1′:2,3]imidazo[5,1-c][1,4]oxazin-9(1H)-one]
≤ 100 | 0.501 | O=c1nc(OCc2cc(F)c(Oc3cnc(C(F)(F)F)nc3)c(F)c2)cc2n1CC1COCCN21 (stereo not drawn) [Example E110, 7-((3,5-Difluoro-4-((2-(trifluoromethyl)pyrimidin-5-yl)oxy)benzyl)oxy)-3,4,11,11a-tetra hydropyrimido[6′,1′:2,3]imidazo[5,1-c][1,4]oxazin-9(1H)-one]
≤ 100 | ≤ 1 | N#Cc1cc(COc2cc3n(c(=O)n2)CC2COCCN32)ccc1Oc1ccc(F)c(C(F)(F)F)c1 (stereo not drawn) [Example E111, 2-(4-Fluoro-3-(trifluoromethyl)phenoxy)-5-(((9-oxo-1,3,4,9,11,11a-hexahydropyrimido[6′,1′:2,3]imidazo[5,1-c][1,4]oxazin-7-yl)oxy)methyl)benzonitrile]
≤ 100 | ≤ 1 | CCCn1cc(Oc2c(F)cc(COc3cc4n(c(=O)n3)C[C@H]3COCCN43)cc2F)cn1 [Example E112, (S)-7-((3,5-difluoro-4-((1-propyl-1H-pyrazol-4-yl)oxy)benzyl)oxy)-3,4,11,11atetrahydropyrimido[6′,1′:2,3]imidazo[5,1-c][1,4]oxazin-9(1H)-one]
≤ 100 | 0.0316 | O=c1nc(OCc2cc(F)c(Oc3ccnc(C(F)(F)F)c3)c(F)c2)cc2n1C[C@H]1COCCN21 [Example E113, (S)-7-((3,5-difluoro-4-((2-(trifluoromethyl)pyridin-4-yl)oxy)benzyl)oxy)-3,4, 11, 11a tetrahydropyrimido[6′,1′:2,3]imidazo[5,1-c][1,4]oxazin-9(1H)-one]
≤ 100 | ≤ 100 | Cn1cc(Oc2c(F)cc(COc3cc4n(c(=O)n3)C[C@H]3COCCN43)cc2F)cn1 [Example E114, (S)-7-((3,5-difluoro-4-((1-methyl-1H-pyrazol-4-yl)oxy)benzyl)oxy)-3,4,11,11a-tetrahydropyrimido[6′,1′:2,3]imidazo[5,1-c][1,4]oxazin-9(1H)-one]
≤ 100 | 1 | CCn1cc(Oc2c(F)cc(COc3cc4n(c(=O)n3)C[C@H]3COCCN43)cc2F)cn1 [Example E115, (S)-7-((4-((1-ethyl-1H-pyrazol-4-yl)oxy)-3,5-difluorobenzyl)oxy)-3,4,11,11a-tetrahydropyrimido[6′,1′:2,3]imidazo[5,1-c][1,4]oxazin-9(1H)-one]
≤ 100 | ≤ 100 | O=c1nc(OCc2cc(F)c(F)c(F)c2)cc2n1C[C@H]1COCCN21 [Example E116, (S)-7-((3,4,5-trifluorobenzyl)oxy)-3,4,11,11atetrahydropyrimido[6′,1′:2,3]imidazo[5,1-c][1,4] oxazin-9(1H)-one]
≤ 100 | ≤ 100 | Cc1cc(Oc2c(F)cc(COc3cc4n(c(=O)n3)C[C@@H]3COCCN43)cc2F)ccn1 [Example E117, (R)-7-((3,5-difluoro-4-((2-methylpyridin-4-yl)oxy)benzyl)oxy)-3,4,11,11atetrahydropyrimido[6′,1′:2,3]imidazo[5,1-c][1,4]oxazin-9(1H)-one]
≤ 100 | ≤ 1 | Cc1ccc(Oc2c(F)cc(COc3cc4n(c(=O)n3)C[C@@H]3COCCN43)cc2F)cn1 [Example E118, (R)-7-((3,5-difluoro-4-((6-methylpyridin-3-yl)oxy)benzyl)oxy)-3,4,11,11atetrahydropyrimido[6′,1′:2,3]imidazo[5,1-c][1,4]oxazin-9(1H)-one]
≤ 100 | ≤ 1 | O=c1nc(OCc2cc(F)c(Oc3ccnc(C(F)(F)F)c3)c(F)c2)cc2n1C[C@@H]1COCCN21 [Example E119, (R)-7-((3,5-difluoro-4-((2-(trifluoromethyl)pyridin-4-yl)oxy)benzyl)oxy)-3,4, 11, 11a-tetra hydropyrimido[6′,1′:2,3]imidazo[5,1-c][1,4]oxazin-9(1H)-one]
≤ 10000 | ≤ 100 | Cn1cc(Oc2c(F)cc(COc3cc4n(c(=O)n3)C[C@@H]3COCCN43)cc2F)cn1 [Example E120, (R)-7-((3,5-difluoro-4-((1-methyl-1H-pyrazol-4-yl)oxy)benzyl)oxy)-3,4,11,11a-tetrahydropyrimido[6′,1′:2,3]imidazo[5,1-c][1,4]oxazin-9(1H)-one]
≤ 10000 | ≤ 100 | CCn1cc(Oc2c(F)cc(COc3cc4n(c(=O)n3)C[C@@H]3COCCN43)cc2F)cn1 [Example E121, (R)-7-((4-((1-ethyl-1H-pyrazol-4-yl)oxy)-3,5-difluorobenzyl)oxy)-3,4,11,11a-tetrahydropyrimido[6′,1′:2,3]imidazo[5,1-c][1,4]oxazin-9(1H)-one]
≤ 10000 | ≤ 100 | CCCn1cc(Oc2c(F)cc(COc3cc4n(c(=O)n3)C[C@@H]3COCCN43)cc2F)cn1 [Example E122, (R)-7-((3,5-difluoro-4-((1-propyl-1H-pyrazol-4-yl)oxy)benzyl)oxy)-3,4,11,11atetrahydropyrimido[6′,1′:2,3]imidazo[5,1-c][1,4]oxazin-9(1H)-one]
